In the assay the target is T1, UGT2B7 (UDP-glycosyltransferase) (Homo sapiens, UniProt P16662).
T1 construct: human liver microsomes encapsulated in hydrogel (HLM-Gel)
T1 sequence (P16662 24-529): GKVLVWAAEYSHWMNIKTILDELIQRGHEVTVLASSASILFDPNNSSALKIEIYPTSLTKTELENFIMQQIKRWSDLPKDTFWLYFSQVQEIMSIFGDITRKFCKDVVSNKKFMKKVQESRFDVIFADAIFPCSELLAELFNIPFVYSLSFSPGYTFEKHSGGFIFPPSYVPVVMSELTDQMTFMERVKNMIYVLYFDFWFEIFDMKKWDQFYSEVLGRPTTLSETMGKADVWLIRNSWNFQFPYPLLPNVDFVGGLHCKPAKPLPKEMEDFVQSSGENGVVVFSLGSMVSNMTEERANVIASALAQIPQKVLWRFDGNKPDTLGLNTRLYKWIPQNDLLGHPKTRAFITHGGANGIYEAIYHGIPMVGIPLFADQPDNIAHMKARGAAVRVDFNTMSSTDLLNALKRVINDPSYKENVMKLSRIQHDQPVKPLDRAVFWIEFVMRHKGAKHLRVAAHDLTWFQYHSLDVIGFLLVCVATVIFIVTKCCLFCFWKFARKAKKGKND
Nature of the assay: inhibition of AZT glucuronidation in human liver microsomes in the Bio-PK dynamic system, HPLC, Ki fitted by MATLAB model. It counts as biochemical. (Liver microsomes are vesicles of endoplasmic reticulum, rich in cytochrome P450 enzymes.)

A word on the Ki: it is a measure of affinity in units of concentration, obtained from inhibition or displacement. Low readings indicate higher affinity, high ones lower affinity.

As for `OC(Cn1cncn1)(Cn1cncn1)c1ccc(F)cc1F` [FCZ, fluconazole], the inhibitory constant (Ki) was 14 µM.

These data come from paper PMC8538957 (Pharmaceutics, 2021).
